Data reported in patent US20240309003A1, “HETEROCYCLIC COMPOUNDS AS TRIGGERING RECEPTOR EXPRESSED ON MYELOID CELLS 2 AGONISTS AND METHODS OF USE” (Vigil Neuroscience, Inc., priority 2021, published 2024).

Target: T1, human TREM2 (Homo sapiens, UniProt Q9NZC2)
T1 construct: expressed in transfected cells; host or cells: HEK293T
Experiment: TREM2 agonist potency by cellular phosphorylation of Syk (AlphaLisa) in HEK293T-hTREM2 cells
Format: cell-based
Settings: HEK293 cells expressing human TREM2 and DAP12, Table D
In short: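 Agonist EC50 from a variable-slope four-parameter fit of % activation, based on AlphaLisa phospho-Syk levels in lysates. Cells: HEK293T-hTREM2 (with DAP12), treated 45 min at room temperature with compound in assay buffer.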

T1 sequence (Q9NZC2 19-230): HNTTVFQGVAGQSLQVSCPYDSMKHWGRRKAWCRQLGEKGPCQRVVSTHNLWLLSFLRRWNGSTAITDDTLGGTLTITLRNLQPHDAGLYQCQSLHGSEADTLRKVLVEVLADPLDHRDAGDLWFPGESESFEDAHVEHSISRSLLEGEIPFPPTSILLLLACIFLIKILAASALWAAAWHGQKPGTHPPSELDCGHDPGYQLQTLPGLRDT
T1 sequence (O43914 22-113 partner): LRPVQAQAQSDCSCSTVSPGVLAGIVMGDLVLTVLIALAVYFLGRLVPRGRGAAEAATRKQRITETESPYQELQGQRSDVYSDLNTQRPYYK

**Q.** Which EC50 does the source give for `Cc1nc2nc(-c3ccc(Cl)cc3F)cc([C@@H]3CCO[C@@H](c4cnn(C5CC5)c4)C3)c2nc1C` [Example 236, 6-(4-chloro-2-fluorophenyl)-8-((2R,4R)-2-(1-cyclopropyl-1H-pyrazol-4-yl)tetrahydro-2H-pyran-4-yl)-2,3-dimethylpyrido[2,3-b]pyrazine] here?
**A.** 50 to 500 nM

**Q.** How did the EC50 turn out when `COc1ccc(-c2nc([C@H]3CCO[C@@H](c4cnn(C5CC5)c4)C3)nc3nc(C)c(C)nc23)cn1` [Example 239, 2-((2R,4S)-2-(1-cyclopropyl-1H-pyrazol-4-yl)tetrahydro-2H-pyran-4-yl)-4-(6-methoxypyridin-3-yl)-6,7-dimethylpteridine] was run?
**A.** 50 to 500 nM

**Q.** Which EC50 does the source give for `Cc1nc2nc([C@H]3C[C@@H](C)O[C@@H](c4cnn(C5CC5)c4)C3)nc(-c3cc(F)c(F)cc3F)c2nc1C` [Example 157, 2-((2R,4S,6R)-2-(1-cyclopropyl-1H-pyrazol-4-yl)-6-methyltetrahydro-2H-pyran-4-yl)-6,7-dimethyl-4-(2,4,5-trifluorophenyl)pteridine] here?
**A.** < 50 nM

**Q.** Which EC50 does the source give for `Cc1cc([C@@H]2C[C@H](c3cc(-c4ccc(Cl)cc4F)c4cc(C)c(C)nc4n3)CCO2)ccn1` [Example 185, 5-(4-chloro-2-fluorophenyl)-2,3-dimethyl-7-((2S,4R)-2-(2-methylpyridin-4-yl)tetrahydro-2H-pyran-4-yl)-1,8-naphthyridine] here?
**A.** 500 to 3000 nM

**Q.** Which EC50 does the source give for `Cc1nc2nc([C@H]3CCO[C@@H](c4cnn(C5CCC5)c4)C3)nc(-c3ccc(F)cc3F)c2nc1C` [Example 148, 2-((2R,4S)-2-(1-cyclobutyl-1H-pyrazol-4-yl)tetrahydro-2H-pyran-4-yl)-4-(2,4-difluorophenyl)-6,7-dimethylpteridine] here?
**A.** < 50 nM

**Q.** Which EC50 does the source give for `COc1ccc([C@H]2C[C@@H](c3nc(-c4ccc(F)cc4F)c4nc(C)c(C)nc4n3)CCO2)cn1` [Example 163, 4-(2,4-difluorophenyl)-2-((2R,4S)-2-(6-methoxypyridin-3-yl)tetrahydro-2H-pyran-4-yl)-6,7-dimethylpteridine] here?
**A.** 50 to 500 nM

**Q.** For `Cc1nc2nc([C@H]3CCO[C@@H](c4cnn(C5CC5)c4)C3)nc(C3CCCCC3)c2nc1C` [Example 247, 4-cyclohexyl-2-((2R,4S)-2-(1-cyclopropyl-1H-pyrazol-4-yl)tetrahydro-2H-pyran-4-yl)-6,7-dimethylpteridine], which EC50 is on record?
**A.** < 50 nM

**Q.** With `Cc1nc2cc([C@H]3CCO[C@@H](c4cnn(C5CC5)c4)C3)nc(-c3ccc(F)cc3F)c2nc1C` [Example 210, 7-((2R,4S)-2-(1-cyclopropyl-1H-pyrazol-4-yl)tetrahydro-2H-pyran-4-yl)-5-(2,4-difluorophenyl)-2,3-dimethylpyrido[3,4-b]pyrazine] as the compound, how does the EC50 read?
**A.** < 50 nM

**Q.** Which EC50 does the source give for `COc1ncccc1[C@H]1C[C@@H](c2nc(C34CC(C(F)(F)F)(C3)C4)c3nc(C)c(C)nc3n2)CCO1` [Example 144, 2-((2R,4S)-2-(2-methoxypyridin-3-yl)tetrahydro-2H-pyran-4-yl)-6,7-dimethyl-4-(3-(trifluoromethyl)bicyclo[1.1.1]pentan-1-yl)pteridine] here?
**A.** 50 to 500 nM

**Q.** With `Cc1nc2nc(N3CCO[C@H](c4cc[nH]c(=O)c4)C3)nc(C34CC(C(F)(F)F)(C3)C4)c2nc1C` [Example 199, (R)-4-(4-(6,7-dimethyl-4-(3-(trifluoromethyl)bicyclo[1.1.1]pentan-1-yl)pteridin-2-yl)morpholin-2-yl)pyridin-2(1H)-one] as the compound, how does the EC50 read?
**A.** 50 to 500 nM

**Q.** With `Cc1ccc2c(-c3ccc(Cl)c(F)c3F)nc([C@H]3CCO[C@@H](c4cnn(C5CC5)c4)C3)nc2n1` [Example 218, 4-(4-chloro-2,3-difluorophenyl)-2-((2R,4S)-2-(1-cyclopropyl-1H-pyrazol-4-yl)tetrahydro-2H-pyran-4-yl)-7-methylpyrido[2,3-d]pyrimidine] as the compound, how does the EC50 read?
**A.** < 50 nM

**Q.** With `Cc1ccc2c(-c3ccc(C(F)(F)F)cc3)nc([C@H]3CCO[C@@H](c4cnn(C5CC5)c4)C3)nc2n1` [Example 217, 2-((2R,4S)-2-(1-cyclopropyl-1H-pyrazol-4-yl)tetrahydro-2H-pyran-4-yl)-7-methyl-4-(4-(trifluoromethyl)phenyl)pyrido [2,3-d]pyrimidine] as the compound, how does the EC50 read?
**A.** < 50 nM

**Q.** For `Cc1cnc2c(-c3ccc(F)cc3F)nc(N3C[C@@H](c4cnn(C5CC5)c4)O[C@@H](C)C3)cc2n1` [Example 208, (2R,6S)-2-(1-cyclopropyl-1H-pyrazol-4-yl)-4-(5-(2,4-difluorophenyl)-2-methylpyrido[3,4-b]pyrazin-7-yl)-6-methylmorpholine], which EC50 is on record?
**A.** 500 to 3000 nM

**Q.** `COc1cccc([C@H]2C[C@@H](c3nc(C45CC(C(F)(F)F)(C4)C5)c4nc(C)c(C)nc4n3)CCO2)n1` [Example 146, 2-[ (2R,4S)-2-(6-methoxy-2-pyridyl)tetrahydropyran-4-yl] - 6,7-dimethyl-4-[3-(trifluoromethyl)-1-bicyclo[1.1.1]pentanyl]pteridine] was tested. Which EC50 did it give?
**A.** 50 to 500 nM

Same assay, conditions: HEK293 cells expressing human TREM2 and DAP12, Table D-2

**Q.** `COCCn1cc([C@H]2C[C@@H](c3nc(-c4ccc(F)cc4F)c4nc(C)c(C)nc4n3)CCO2)cn1` (stereo in doubt) [Example I-1658, 4-(2,4-difluorophenyl)-2-(2-(1-(2-methoxyethyl)-1H-pyrazol-4-yl)tetrahydro-2H-pyran-4-yl)-6,7-dimethylpteridine] was tested. Which EC50 did it give?
**A.** 50 to 500 nM

**Q.** `Cc1nc2nc([C@H]3CCO[C@@H](c4cnn(C5CC5)c4)C3)nc(-c3ccc(C4CCC4)cc3F)c2nc1C` [Example I-1182, 4-(4-cyclobutyl-2-fluoro-phenyl)-2-[(2R,4S)-2-(1-cyclopropylpyrazol-4-yl)tetrahydropyran-4-yl]-6,7-dimethyl-pteridine] was tested. Which EC50 did it give?
**A.** 500 to 3000 nM

**Q.** `COc1nc2c(-c3ccc(F)cc3F)nc([C@@H]3CCO[C@H](c4cnn(C5CC5)c4)C3)nc2nc1C` (racemic) [Example I-1653, 4-(2,4-difluorophenyl)-6-methoxy-7-methyl-2-[rac-(2R,4S)-2-(1-cyclopropylpyrazol-4-yl)tetrahydropyran-4-yl]pteridine] was tested. Which EC50 did it give?
**A.** < 50 nM

**Q.** With `Cc1nc2cc([C@H]3CCO[C@@H](c4cnn(C5CC5)c4)C3)nc(-c3ccc(F)cc3F)c2nc1COCC1COC1` [Example I-1505, 7-((2R,4S)-2-(1-cyclopropyl-1H-pyrazol-4-yl)tetrahydro-2H-pyran-4-yl)-5-(2,4-difluorophenyl)-2-methyl-3-((oxetan-3-ylmethoxy)methyl)pyrido[3,4-b]pyrazine] as the compound, how does the EC50 read?
**A.** 500 to 3000 nM

**Q.** Which EC50 does the source give for `Cc1nc2nc(C3CCS(=O)(=O)N(c4cnn(C5CC5)c4)C3)nc(-c3ccc(Cl)cc3F)c2nc1C` (racemic) [Example I-1733, 4-[4-(4-chloro-2-fluoro-phenyl)-6,7-dimethyl-pteridin-2-yl]-2-(1-cyclopropylpyrazol-4-yl)thiazinane 1,1-dioxide] here?
**A.** 50 to 500 nM

**Q.** How did the EC50 turn out when `Cc1nc2nc(N3C[C@@H](C4CC4)O[C@@H](c4cnn(C(F)F)c4)C3)nc(-c3ccc(C(F)(F)F)cc3F)c2nc1C` [Example I-1711, (2R,6S)-2-cyclopropyl-6-[1-(difluoromethyl)pyrazol-4-yl]-4-[4-[2-fluoro-4-(trifluoromethyl)phenyl]-6,7-dimethyl-pteridin-2-yl]morpholine] was run?
**A.** < 50 nM

**Q.** `Cc1nc2nc(N3C[C@@H](C)O[C@@H](c4cnn(C5CC5)c4)C3)nc(-c3cc(C(F)F)c(F)cc3F)c2nc1C` (stereo in doubt) [Example I-1706, (2S,6R)-2-(1-cyclopropylpyrazol-4-yl)-4-[4-[5-(difluoromethyl)-2,4-difluoro-phenyl]-6,7-dimethyl-pteridin-2-yl]-6-methyl-morpholine] was tested. Which EC50 did it give?
**A.** < 50 nM

**Q.** How did the EC50 turn out when `CCc1nc2c(-c3ccc(F)cc3F)nc([C@H]3CCO[C@@H](c4cnn(C5CC5)c4)C3)cc2nc1C` [Example I-1557, 7-((2R,4S)-2-(1-cyclopropyl-1H-pyrazol-4-yl)tetrahydro-2H-pyran-4-yl)-5-(2,4-difluorophenyl)-3-ethyl-2-methylpyrido[3,4-b]pyrazine] was run?
**A.** 50 to 500 nM

**Q.** For `Cc1nc2nc([C@H]3CCO[C@@H](c4cnn(C5CC5)c4)C3)nc(-c3ccc(C(F)F)cc3F)c2nc1C` [Example I-1216, 2-[(2R,4S)-2-(1-cyclopropylpyrazol-4-yl)tetrahydropyran-4-yl]-4-[4-(difluoromethyl)-2-fluoro-phenyl]-6,7-dimethyl-pteridine], which EC50 is on record?
**A.** < 50 nM

**Q.** Which EC50 does the source give for `Cc1nc2nc(N3C[C@@H](C)O[C@@H](c4cnn(C5CC5)c4)C3)cc(-c3ccc(Cl)cc3F)c2nc1C` [Example I-1076, (2S,6R)-4-[8-(4-chloro-2-fluoro-phenyl)-2,3-dimethyl-pyrido[2,3-b]pyrazin-6-yl]-2-(1-cyclopropylpyrazol-4-yl)-6-methyl-morpholine] here?
**A.** < 50 nM

**Q.** How did the EC50 turn out when `Cc1nc2nc([C@H]3CCO[C@@H](c4cnn(C5CC5)c4)C3)nc(-c3ccc(Cl)cc3F)c2nc1OCCF` [Example I-1283, 4-(4-chloro-2-fluoro-phenyl)-2-[(2R,4S)-2-(1-cyclopropylpyrazol-4-yl)tetrahydropyran-4-yl]-6-(2-fluoroethoxy)-7-methyl-pteridine] was run?
**A.** < 50 nM

**Q.** `Cc1nc2nc(N3C[C@@H](C)O[C@@H](c4cnn(C5CC5)c4F)C3)nc(-c3ccc(F)cc3F)c2nc1C` [Example I-1401, (2S,6R)-2-(1-cyclopropyl-5-fluoro-pyrazol-4-yl)-4-[4-(2,4-difluorophenyl)-6,7-dimethyl-pteridin-2-yl]-6-methyl-morpholine] was tested. Which EC50 did it give?
**A.** < 50 nM

**Q.** With `Cc1nc2nc(N3C[C@@H](C4CC4)O[C@@H](c4cnn(C5CC5)c4)C3)nc(-c3ccc(F)cc3F)c2nc1C` [Example I-1381] as the compound, how does the EC50 read?
**A.** < 50 nM

**Q.** `Cc1nc2nc([C@H]3CCO[C@@H](c4cnn(C56CC(C5)C6)c4)C3)nc(-c3ccc(F)cc3F)c2nc1C` [Example I-1668, 2-[(2R,4S)-2-[1-(1-bicyclo [1.1.1]pentanyl)pyrazol-4-yl]tetrahydropyran-4-yl]-4-(2,4-difluorophenyl)-6,7-dimethyl-pteridine] was tested. Which EC50 did it give?
**A.** < 50 nM

**Q.** With `Cc1nc2nc([C@H]3CCO[C@@H](c4cnn(C5CC5)c4)C3)nc(-c3ccc(C(F)(F)F)c(F)c3F)c2nc1C` (stereo in doubt) [Example I-1588, 4-[2,3-difluoro-4-(trifluoromethyl)phenyl]-6,7-dimethyl-2-[(2R,4S)-2-(1-cyclopropylpyrazol-4-yl)tetrahydropyran-4-yl]pteridine] as the compound, how does the EC50 read?
**A.** < 50 nM
